Data set [1] in a line: Solubility / appearance of avenanthramide solutions with and without 4-hydroxyacetophenone, evaluated at 22° C. The format is physicochemical. How it is done: The solubility of avenanthramides A, B, C, D or L and Dihydroavenanthramide D in solution in combination with 4-hydroxyacetophenone in different concentrations was evaluated against a solution of avenanthram ides A, B, C, D and L without 4-hydroxyacetophenone.
The corresponding avenanthramides were presolved in ethanol or glycol. Water and 4-hydroxyacetophenone were added under stirring and heating up the solution to 60° C. The appearance of the solutions was evaluated at 22° C. according to the following Table 1: […]

For data set [2] the following is noted: Avn C, followed by Avn B and Avn A; cited from earlier work.
Setting [3] is: addition of 4-hydroxyacetophenone in concentration of 0.1 or 0.5 wt % (Table 3, Table 4 b).

In the case of `O=C(C=Cc1ccc(O)cc1)Nc1ccc(O)cc1C(=O)O` [Avenanthramide A, N-(4′-hydroxycinnamoyl)-5-hydroxyanthranilic acid], the “Effect of 4-hydroxyacetophenone on solubility” value in data set [1] (4-hydroxyacetophenone 0.01 wt %) was “improves the solubility”. In data set [1] (setting [3]), the Appearance of solution entry is reported as “clear solutions without turbidity or precipitation”.

With `O=C(C=Cc1ccc(O)c(O)c1)Nc1ccc(O)cc1C(=O)O` [Avenanthramide C, N-(3′-4′-dihydroxycinnamoyl)-5-hydroxyanthranilic acid], the “Antioxidant activity, ranking among Avns” value in data set [2] is given as “highest activity”.

As for `O=C(/C=C/C=C/c1ccc(O)cc1)Nc1ccc(O)cc1C(=O)O` [Avenanthramide L], the values for the Appearance of solution entry in data set [1] (4-hydroxyacetophenone concentration increased to 0.5% as in Table 4 b) and in data set [1] (setting [3]) were “clear solution” and “clear solutions without turbidity or precipitation”, respectively. Also, the “Effect of addition of 4-hydroxyacetophenone on solubility / appearance” value in data set [1] (versus solution without 4-hydroxyacetophenone, increasing concentration) is given as “improved”.

Regarding `O=C(CCc1ccc(O)cc1)Nc1ccccc1C(=O)O` [Dihydroavenanthramide D, 2-[(3-(4-hydroxyphenyl)propanoyl]amido)benzoic acid], the Appearance of solution result in data set [1] (addition of 4-hydroxyacetophenone in concentrations of 0.5 to 1.0% (Tables 7 a and 7 b)) is given as “clear solutions withouts turbidity or precipitation”.
